How the values were obtained:
[1] = test system: whole rat livers; assay: Optimized partial freezing of whole rat livers: SNMP recovery after freezing; conditions: −10° C., 1 day; at 3 h
Method: (§1) Within this standardized protocol, we first compared GLY, EG, and PG as main permeating CPA using a freezing temperature of −10° C. and storage duration of 1 day (FIG. 37). Using PG as the CPA, we subsequently tested the effect of freezing temperature (−10° C. vs −15° C.) and storage duration (1 day vs 5 days) on liver viability after partial freezing using the same protocol (FIG. 38).
Machine perfusion system: The perfusion system provides a continuous perfusion through the portal vein that is pressure, flow, and temperature controlled. The perfusates can be either recirculated or flushed with a single pass though the liver and perfusates can be changed without interrupting perfusion. The setup and operation of the perfusion system is described in detail elsewhere (see, e.g., ref. 15). There were two oxygenators used in this study, including the Radnoti (Cat #130144) and Affinity Pixie Oxygenator (Cat #BBP241). Due to the flexibility and low cost of the Radnoti oxygenator, it was first used for initial optimization and characterization studies, including determining the effect of permeating CPAs (GLY vs EG vs PG; FIG. 37), temperature (−10 vs −15° C., FIG. 38) storage duration (1 vs 5 days, FIG. 38), and warm ischemic injury. Once the major aspects of the protocol were optimized and characterized, we used the clinical grade Affinity Pixie Oxygenator. […]

[2] = test system: whole rat livers; assay: Optimized partial freezing of whole rat livers: ex vivo simulated transplantation (normothermic reperfusion with whole blood); conditions: −10° C., 1 day
Method: as §1
The Affinity Pixie Oxygenator is a clinical grade oxygenator that has graduated fiber bundle density technology and radial flow path that is designed to create a more uniform blood flow, enhance gas transfer, reduce pressure drops, and decrease prime volume. Moreover, it also contains a Balance® Biosurface that contains a hydrophilic polymer coating to reduce platelet adhesion and activation. This adaptation to the oxygenator is essential since recirculating whole blood during simulated transplantation may trigger coagulation and inflammatory events that are not representative of in vivo events and could skew observed outcomes.
Machine perfusion system: The perfusion system provides a continuous perfusion through the portal vein that is pressure, flow, and temperature controlled. The perfusates can be either recirculated or flushed with a single pass though the liver and perfusates can be changed without interrupting perfusion. The setup and operation of the perfusion system is described in detail elsewhere (see, e.g., ref. 15). There were two oxygenators used in this study, including the Radnoti (Cat #130144) and Affinity Pixie Oxygenator (Cat #BBP241). Due to the flexibility and low cost of the Radnoti oxygenator, it was first used for initial optimization and characterization studies, including determining the effect of permeating CPAs (GLY vs EG vs PG; FIG. 37), temperature (−10 vs −15° C., FIG. 38) storage duration (1 vs 5 days, FIG. 38), and warm ischemic injury.
Preconditioning during SNMP: Directly after procurement the livers were perfused with 250 ml of SNMP preloading solution (see Table 7 for composition of all solutions). The perfusion temperature was set at 21° C. and perfusion was initiated at 5 ml/min. […] Next, the livers were perfused for 30 additional minutes to allow for cellular uptake of 3-O-methyl-D-glucose (3-OMG).
Preloading of CPAs during HMP: The SNMP preloading solution was gradually switched to HMP preloading solution in […] increments, each with 10% decreasing and 10% increasing volumetric fractions of SNMP and HMP preloading solution, respectively. During this switch, the perfusion temperature was lowered to 4° C., and flows were adjusted to a maximum perfusion pressure of 3 mmHg. Dependent on the flowrate, the solution switch took 10-15 minutes. The HMP preloading was continued for 30 additional minutes to ensure complete equilibration of the solution throughout the peripheral liver tissue.
This was done in 10 fractions of 10 ml, each with 10% decreasing and 10% increasing volumetric fractions of HMP preloading solution and storage solution, respectively. During this switch, the perfusion temperature was maintained at 4° C., and the flowrates were lowered to ensure a maximum perfusion pressure of 3 mmHg. The final 15 ml fraction of 100% storage solution was loaded at a fixed flowrate of 0.5 ml/min.
Partial freezing: After loading of the storage solution, the liver was placed in a bag with 50 ml fresh storage solution and suspended in a pre-cooled chiller (Engel, Schwertberg, Austria). Depending on the experimental condition the chiller temperature was pre-cooled to −10° C. or −15° C. and the liver stored for […] 5 days.

[3] = test system: rat livers; assay: Initial partial freezing protocol of rat livers at −6° C., SNMP recovery; conditions: glycerol 6% vol/vol with Snomax 1 g/L, 3-OMG 200 mM, PEG 5%

Question: For `OCC(O)CO` [GLY, glycerol], which “weight gain during SNMP recovery” value [1] is on record?
Answer: The value was 35.00±20.49%.

Question: What about the “bile production during simulated transplantation” value [2] of the same molecule?
Answer: The value was “did not produce bile”.

Question: What about the “lactate clearance after first hour of simulated transplantation” value [2] of the same molecule?
Answer: Its value is “not observed”.

Question: And the “microscopic tissue structure (H&E, blinded pathologist)” value [2]?
Answer: The value was “most unfavorable results”.

Question: What about the oxygen uptake during simulated transplantation ([2]; at 2 h) of the same molecule?
Answer: The oxygen uptake during simulated transplantation was 17.9 ± 5.86 µL O2/min/g.

Question: What about the “tissue adenylate energy charge” value ([2]; at 2 h) of the same molecule?
Answer: Its value is 0.064±0.039.

Question: And the “weight gain during simulated transplantation” value ([2]; at 2 h)?
Answer: Its value is 19.00±16.63%.

Question: And the AST levels ([2]; at 2 h of simulated transplantation)?
Answer: Its AST levels is 1528±388 U/L.

Question: What about the “vascular resistance (mean±SD)” value [3] of the same molecule?
Answer: Its value is 0.11±0.05 mmHg*min/ml*g.

Question: And the edema ([3]; one-step hand syringe loading)?
Answer: The edema was greater than 60%.

— US20240268372A1, “Methods and Compositions for Extending Organ and Tissue Preservation” (The General Hospital Corporation, priority 2021, published 2024)
